According to patent US10689381B2 (priority 2017, dated 2020):
Like-named read-outs stand apart in the source and are kept apart here.

Legend:
[1] = system: HCT116; assay: cells; assay type: cell-based, human; details: for IC50: read-out: IC50 HCT116
Outline: (§1)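 Cells seeded at 30,000 cells/mL in DMEM with 10% FBS, then exposed for 72 h to compound at six concentrations spanning 0–1000 nM or 0–10000 nM, in duplicate. Final incubation at 37 °C lasted 5 min for L1210 and 15 min for HCT116.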

[2] = system: L1210; assay: cells; assay type: cell-based, mouse
Outline: as §1

CCC1(NC(=O)c2ccc3ccccc3n2)CC2CN(CCc3c([nH]c4ccccc34)C(C(=O)OC)(c3cc4c(cc3OC)N(C)C3C(O)(C(=O)OC)C(OC(C)=O)C5(CC)C=CCN6CCC43C65)C2)C1 (stereo not drawn) [Compound 152]
IC50 ([1]; Table 6): 40 nM
loss in activity when acyl substitution site is ortho to the basic nitrogen ([1]; quinolyl series): about 100 fold
IC50 ([2]; Table 6): 40 nM

CCC1(NC(=O)c2ccc3ccncc3c2)CC2CN(CCc3c([nH]c4ccccc34)C(C(=O)OC)(c3cc4c(cc3OC)N(C)C3C(O)(C(=O)OC)C(OC(C)=O)C5(CC)C=CCN6CCC43C65)C2)C1 (stereo not drawn) [Compound 153]
IC50 ([1]; Table 6): 0.4 nM
IC50 ([2]; Table 6): 0.4 nM

CCC1(NC(=O)c2ccc3cnccc3c2)CC2CN(CCc3c([nH]c4ccccc34)C(C(=O)OC)(c3cc4c(cc3OC)N(C)C3C(O)(C(=O)OC)C(OC(C)=O)C5(CC)C=CCN6CCC43C65)C2)C1 (stereo not drawn) [Compound 154]
IC50 ([1]; Table 6): 0.6 nM
IC50 ([2]; Table 6): 0.6 nM

CC[C@]1(NC(=O)c2ccc3nccnc3c2)C[C@H]2CN(CCc3c([nH]c4ccccc34)[C@@](C(=O)OC)(c3cc4c(cc3OC)N(C)[C@H]3[C@@](O)(C(=O)OC)[C@H](OC(C)=O)[C@]5(CC)C=CCN6CC[C@]43[C@@H]65)C2)C1 [Compound 155]
IC50 ([1]; Table 6): 0.6 nM
IC50 ([2]; Table 6): 0.6 nM

CCC1(NC(=O)c2cnc3ccccc3n2)CC2CN(CCc3c([nH]c4ccccc34)C(C(=O)OC)(c3cc4c(cc3OC)N(C)C3C(O)(C(=O)OC)C(OC(C)=O)C5(CC)C=CCN6CCC43C65)C2)C1 (stereo not drawn) [Compound 156]
IC50 ([1]; Table 6): 5.9 nM
IC50 ([2]; Table 6): 6.2 nM

CCC1(NC(=O)c2ccc3ccoc3c2)CC2CN(CCc3c([nH]c4ccccc34)C(C(=O)OC)(c3cc4c(cc3OC)N(C)C3C(O)(C(=O)OC)C(OC(C)=O)C5(CC)C=CCN6CCC43C65)C2)C1 (stereo not drawn) [Compound 157]
IC50 ([1]; Table 6): 2.2 nM
IC50 ([2]; Table 6): 3.3 nM

CCC1(NC(=O)c2ccc3occc3c2)CC2CN(CCc3c([nH]c4ccccc34)C(C(=O)OC)(c3cc4c(cc3OC)N(C)C3C(O)(C(=O)OC)C(OC(C)=O)C5(CC)C=CCN6CCC43C65)C2)C1 (stereo not drawn) [Compound 158]
IC50 ([1]; Table 6): 3.8 nM
IC50 ([2]; Table 6): 5 nM

CCC1(NC(=O)c2coc3ccccc23)CC2CN(CCc3c([nH]c4ccccc34)C(C(=O)OC)(c3cc4c(cc3OC)N(C)C3C(O)(C(=O)OC)C(OC(C)=O)C5(CC)C=CCN6CCC43C65)C2)C1 (stereo not drawn) [Compound 159]
IC50 ([1]; Table 6): 4.6 nM
IC50 ([2]; Table 6): 4 nM

CC[C@]1(NC(=O)c2cc3ccccc3o2)C[C@H]2CN(CCc3c([nH]c4ccccc34)[C@@](C(=O)OC)(c3cc4c(cc3OC)N(C)[C@H]3[C@@](O)(C(=O)OC)[C@H](OC(C)=O)[C@]5(CC)C=CCN6CC[C@]43[C@@H]65)C2)C1 [Compound 160]
IC50 ([1]; Table 6): 1.1 nM
IC50 ([2]; Table 6): 1.8 nM

CCC1(NC(=O)c2ccc3c(c2)CCO3)CC2CN(CCc3c([nH]c4ccccc34)C(C(=O)OC)(c3cc4c(cc3OC)N(C)C3C(O)(C(=O)OC)C(OC(C)=O)C5(CC)C=CCN6CCC43C65)C2)C1 (stereo not drawn) [Compound 161]
IC50 ([1]; Table 6): 0.25 nM
IC50 ([2]; Table 6): 0.3 nM

CC[C@]1(NC(=O)c2ccc3ccsc3c2)C[C@H]2CN(CCc3c([nH]c4ccccc34)[C@@](C(=O)OC)(c3cc4c(cc3OC)N(C)[C@H]3[C@@](O)(C(=O)OC)[C@H](OC(C)=O)[C@]5(CC)C=CCN6CC[C@]43[C@@H]65)C2)C1 [Compound 162]
IC50 ([1]; Table 6): 2.9 nM
IC50 ([2]; Table 6): 3.1 nM

CCC1(NC(=O)c2ccc3sccc3c2)CC2CN(CCc3c([nH]c4ccccc34)C(C(=O)OC)(c3cc4c(cc3OC)N(C)C3C(O)(C(=O)OC)C(OC(C)=O)C5(CC)C=CCN6CCC43C65)C2)C1 (stereo not drawn) [Compound 163]
IC50 ([1]; Table 6): 4.9 nM
IC50 ([2]; Table 6): 4.2 nM

CC[C@]1(NC(=O)c2csc3ccccc23)C[C@H]2CN(CCc3c([nH]c4ccccc34)[C@@](C(=O)OC)(c3cc4c(cc3OC)N(C)[C@H]3[C@@](O)(C(=O)OC)[C@H](OC(C)=O)[C@]5(CC)C=CCN6CC[C@]43[C@@H]65)C2)C1 [Compound 164]
IC50 ([1]; Table 6): 5.7 nM
IC50 ([2]; Table 6): 5.2 nM

CC[C@]1(NC(=O)c2cc3ccccc3s2)C[C@H]2CN(CCc3c([nH]c4ccccc34)[C@@](C(=O)OC)(c3cc4c(cc3OC)N(C)[C@H]3[C@@](O)(C(=O)OC)[C@H](OC(C)=O)[C@]5(CC)C=CCN6CC[C@]43[C@@H]65)C2)C1 [Compound 165]
IC50 ([1]; Table 6): 1.9 nM
IC50 ([2]; Table 6): 3.1 nM

CCC1(NC(=O)c2ccc3c(c2)ncn3C)CC2CN(CCc3c([nH]c4ccccc34)C(C(=O)OC)(c3cc4c(cc3OC)N(C)C3C(O)(C(=O)OC)C(OC(C)=O)C5(CC)C=CCN6CCC43C65)C2)C1 (stereo not drawn) [Compound 166]
IC50 ([1]; Table 6): 0.6 nM
IC50 ([2]; Table 6): 0.7 nM

CC[C@]1(NC(=O)c2ccc3ncoc3c2)C[C@H]2CN(CCc3c([nH]c4ccccc34)[C@@](C(=O)OC)(c3cc4c(cc3OC)N(C)[C@H]3[C@@](O)(C(=O)OC)[C@H](OC(C)=O)[C@]5(CC)C=CCN6CC[C@]43[C@@H]65)C2)C1 [Compound 167]
IC50 ([1]; Table 6): 0.6 nM
IC50 ([2]; Table 6): 0.6 nM

CCC1(NC(=O)c2ccc3ocnc3c2)CC2CN(CCc3c([nH]c4ccccc34)C(C(=O)OC)(c3cc4c(cc3OC)N(C)C3C(O)(C(=O)OC)C(OC(C)=O)C5(CC)C=CCN6CCC43C65)C2)C1 (stereo not drawn) [Compound 168]
IC50 ([1]; Table 6): 5.1 nM
IC50 ([2]; Table 6): 5.4 nM

CC[C@]1(NC(=O)c2nc3ccccc3o2)C[C@H]2CN(CCc3c([nH]c4ccccc34)[C@@](C(=O)OC)(c3cc4c(cc3OC)N(C)[C@H]3[C@@](O)(C(=O)OC)[C@H](OC(C)=O)[C@]5(CC)C=CCN6CC[C@]43[C@@H]65)C2)C1 [Compound 169]
IC50 ([1]; Table 6): 60 nM
IC50 ([2]; Table 6): 60 nM

CC[C@]1(NC(=O)c2ccc3ncsc3c2)C[C@H]2CN(CCc3c([nH]c4ccccc34)[C@@](C(=O)OC)(c3cc4c(cc3OC)N(C)[C@H]3[C@@](O)(C(=O)OC)[C@H](OC(C)=O)[C@]5(CC)C=CCN6CC[C@]43[C@@H]65)C2)C1 [Compound 170]
IC50 ([1]; Table 6): 0.6 nM
IC50 ([2]; Table 6): 0.5 nM

CC[C@]1(NC(=O)c2ccc3scnc3c2)C[C@H]2CN(CCc3c([nH]c4ccccc34)[C@@](C(=O)OC)(c3cc4c(cc3OC)N(C)[C@H]3[C@@](O)(C(=O)OC)[C@H](OC(C)=O)[C@]5(CC)C=CCN6CC[C@]43[C@@H]65)C2)C1 [Compound 171]
IC50 ([1]; Table 6): 0.7 nM
IC50 ([2]; Table 6): 0.6 nM

CCC1(NC(=O)c2nc3ccccc3s2)CC2CN(CCc3c([nH]c4ccccc34)C(C(=O)OC)(c3cc4c(cc3OC)N(C)C3C(O)(C(=O)OC)C(OC(C)=O)C5(CC)C=CCN6CCC43C65)C2)C1 (stereo not drawn) [Compound 172]
IC50 ([1]; Table 6): 80 nM
IC50 ([2]; Table 6): 180 nM

CCC1(NC(=O)c2ccc3c(c2)OCO3)CC2CN(CCc3c([nH]c4ccccc34)C(C(=O)OC)(c3cc4c(cc3OC)N(C)C3C(O)(C(=O)OC)C(OC(C)=O)C5(CC)C=CCN6CCC43C65)C2)C1 (stereo not drawn) [Compound 174]
IC50 ([1]; Table 6): 0.8 nM
IC50 ([2]; Table 6): 0.6 nM

CCC1(NC(=O)c2ccc3c(c2)OCCO3)CC2CN(CCc3c([nH]c4ccccc34)C(C(=O)OC)(c3cc4c(cc3OC)N(C)C3C(O)(C(=O)OC)C(OC(C)=O)C5(CC)C=CCN6CCC43C65)C2)C1 (stereo not drawn) [Compound 175]
IC50 ([1]; Table 6): 0.5 nM
IC50 ([2]; Table 6): 0.6 nM

CCC1(NC(=O)c2ccc3c(c2)OCCN3C)CC2CN(CCc3c([nH]c4ccccc34)C(C(=O)OC)(c3cc4c(cc3OC)N(C)C3C(O)(C(=O)OC)C(OC(C)=O)C5(CC)C=CCN6CCC43C65)C2)C1 (stereo not drawn) [Compound 176]
IC50 ([1]; Table 6): 0.3 nM
IC50 ([2]; Table 6): 0.3 nM

CCC1(NC(=O)c2ccc3c(c2)CCN3)CC2CN(CCc3c([nH]c4ccccc34)C(C(=O)OC)(c3cc4c(cc3OC)N(C)C3C(O)(C(=O)OC)C(OC(C)=O)C5(CC)C=CCN6CCC43C65)C2)C1 (stereo not drawn) [Compound 177]
IC50 ([1]; Table 6): 6.7 nM
IC50 ([2]; Table 6): 5.1 nM

CC[C@]1(NC(=O)c2ccc3c(c2)CCN3C(=O)OC(C)(C)C)C[C@H]2CN(CCc3c([nH]c4ccccc34)[C@@](C(=O)OC)(c3cc4c(cc3OC)N(C)[C@H]3[C@@](O)(C(=O)OC)[C@H](OC(C)=O)[C@]5(CC)C=CCN6CC[C@]43[C@@H]65)C2)C1 [Compound 178]
IC50 ([1]; Table 6): 15 nM
IC50 ([2]; Table 6): 35 nM

CCC1(NS(=O)(=O)c2ccccc2)CC2CN(CCc3c([nH]c4ccccc34)C(C(=O)OC)(c3cc4c(cc3OC)N(C)C3C(O)(C(=O)OC)C(OC(C)=O)C5(CC)C=CCN6CCC43C65)C2)C1 (stereo not drawn) [Compound 179]
IC50 ([1]; Table 7, C20′ sulfonamides): 50 nM
IC50 ([2]; Table 7, C20′ sulfonamides): 45 nM

CCC1(NS(=O)(=O)c2ccc(C)cc2)CC2CN(CCc3c([nH]c4ccccc34)C(C(=O)OC)(c3cc4c(cc3OC)N(C)C3C(O)(C(=O)OC)C(OC(C)=O)C5(CC)C=CCN6CCC43C65)C2)C1 (stereo not drawn) [Compound 180]
IC50 ([1]; Table 7, C20′ sulfonamides): 30 nM
IC50 ([2]; Table 7, C20′ sulfonamides): 40 nM

CCC1(NS(=O)(=O)c2ccc(OC)cc2)CC2CN(CCc3c([nH]c4ccccc34)C(C(=O)OC)(c3cc4c(cc3OC)N(C)C3C(O)(C(=O)OC)C(OC(C)=O)C5(CC)C=CCN6CCC43C65)C2)C1 (stereo not drawn) [Compound 181]
IC50 ([1]; Table 7, C20′ sulfonamides): 30 nM
IC50 ([2]; Table 7, C20′ sulfonamides): 35 nM

CCC1(NS(=O)(=O)c2cccc([N+](=O)[O-])c2)CC2CN(CCc3c([nH]c4ccccc34)C(C(=O)OC)(c3cc4c(cc3OC)N(C)C3C(O)(C(=O)OC)C(OC(C)=O)C5(CC)C=CCN6CCC43C65)C2)C1 (stereo not drawn) [Compound 182]
IC50 ([1]; Table 7, C20′ sulfonamides): 490 nM
IC50 ([2]; Table 7, C20′ sulfonamides): 450 nM

CCC1(NS(=O)(=O)c2ccccc2[N+](=O)[O-])CC2CN(CCc3c([nH]c4ccccc34)C(C(=O)OC)(c3cc4c(cc3OC)N(C)C3C(O)(C(=O)OC)C(OC(C)=O)C5(CC)C=CCN6CCC43C65)C2)C1 (stereo not drawn) [Compound 183]
IC50 ([1]; Table 7, C20′ sulfonamides): 420 nM
IC50 ([2]; Table 7, C20′ sulfonamides): 360 nM

CCC1(NS(=O)(=O)c2c(C)cc(C)cc2C)CC2CN(CCc3c([nH]c4ccccc34)C(C(=O)OC)(c3cc4c(cc3OC)N(C)C3C(O)(C(=O)OC)C(OC(C)=O)C5(CC)C=CCN6CCC43C65)C2)C1 (stereo not drawn) [Compound 184]
IC50 ([1]; Table 7, C20′ sulfonamides): 580 nM
IC50 ([2]; Table 7, C20′ sulfonamides): 500 nM

CC[C@]1(NS(=O)(=O)c2ccc3ccccc3c2)C[C@H]2CN(CCc3c([nH]c4ccccc34)[C@@](C(=O)OC)(c3cc4c(cc3OC)N(C)[C@H]3[C@@](O)(C(=O)OC)[C@H](OC(C)=O)[C@]5(CC)C=CCN6CC[C@]43[C@@H]65)C2)C1 [Compound 185]
IC50 ([1]; Table 7, C20′ sulfonamides): 60 nM
IC50 ([2]; Table 7, C20′ sulfonamides): 50 nM

CCC1(NS(=O)(=O)c2cccc3c(N(C)C)cccc23)CC2CN(CCc3c([nH]c4ccccc34)C(C(=O)OC)(c3cc4c(cc3OC)N(C)C3C(O)(C(=O)OC)C(OC(C)=O)C5(CC)C=CCN6CCC43C65)C2)C1 (stereo not drawn) [Compound 186]
IC50 ([1]; Table 7, C20′ sulfonamides): 30 nM
IC50 ([2]; Table 7, C20′ sulfonamides): 30 nM
